The structures appear in SMILES notation.

Series [1] in a line: The drug is tested on WLS-370 corresponding to human gut metagenome with ENA study accession number: PRJEB37062 and ENA sample accession number: ERS12561793 for biotransformation under anaerobic condition. The drug concentrations were measured over 9 timepoints collected between 0 and 24 hours of incubation by liquid-chromatography-coupled mass spectrometry (LC–MS). Conditions: 2 µM.

Series [2] is described as follows: The drug is tested on WLS-082 corresponding to human gut metagenome with ENA study accession number: PRJEB37062 and ENA sample accession number: ERS12561751 for biotransformation under anaerobic condition. The drug concentrations were measured over 9 timepoints collected between 0 and 24 hours of incubation by liquid-chromatography-coupled mass spectrometry (LC–MS). Conditions: 2 µM.

Series [3] in a line: The drug is tested on WLS-090 corresponding to human gut metagenome with ENA study accession number: PRJEB37062 and ENA sample accession number: ERS12561753 for biotransformation under anaerobic condition. The drug concentrations were measured over 9 timepoints collected between 0 and 24 hours of incubation by liquid-chromatography-coupled mass spectrometry (LC–MS). Conditions: 2 µM.

The conditions of series [4]: human gut metagenome, 24 h, 2 µM.
The conditions of series [5]: human gut metagenome, 24 h, 2 µM. This is another data set of the same source.
For series [6] the following is noted: human gut metagenome, 24 h, 2 µM. This is another data set of the same source.
For series [7] the following is noted: human gut metagenome, 24 h, 2 µM. The source holds these as a separate data set.
The conditions of series [8]: human gut metagenome, 24 h, 2 µM. This is another data set of the same source.
The nature of series [9]: The drug is tested on WLS-098 corresponding to human gut metagenome with ENA study accession number: PRJEB37062 and ENA sample accession number: ERS12561754 for biotransformation under anaerobic condition. The drug concentrations were measured over 9 timepoints collected between 0 and 24 hours of incubation by liquid-chromatography-coupled mass spectrometry (LC–MS). Conditions: 2 µM.
Further: call rule not given here.

`COc1cc2nc(N3CCN(C(=O)C4COc5ccccc5O4)CC3)nc(N)c2cc1OC.CS(=O)(=O)O` (stereo not drawn) [DOXAZOSIN MESYLATE]: the “Bacterial Biotransformation” value in series [1] is reported as “Compound metabolized”; in series [2] it was “Compound metabolized”; in series [3] it was “Compound metabolized”; in [4] it was “Compound NOT metabolized”; in series [5], “Compound metabolized”; in [6], “Compound metabolized”. The “Bacterial Biotransformation” value was “Compound NOT metabolized” in series [7], “Compound metabolized” in [8] and “Compound metabolized” in [9].
Regarding `CCCN1C[C@H](CSC)C[C@@H]2c3cccc4[nH]cc(c34)C[C@H]21.CS(=O)(=O)O` [PERGOLIDE MESYLATE], the “Bacterial Biotransformation” value is reported as “Compound metabolized” in series [1]; “Compound NOT metabolized” in series [2]; “Compound NOT metabolized” in [3]; “Compound NOT metabolized” in [4]; “Compound NOT metabolized” in series [5]; “Compound NOT metabolized” in series [6]. The “Bacterial Biotransformation” value in series [7], in series [8] and in series [9] was “Compound NOT metabolized” each time.
In the case of `CCCC(C)(COC(N)=O)COC(=O)NC(C)C` (stereo not drawn) [CARISOPRODOL], the “Bacterial Biotransformation” value in [1], in series [2], in [3], in series [4], in series [5] and in [6] was “Compound metabolized” throughout. The “Bacterial Biotransformation” value in [7], in series [8] and in series [9] was “Compound metabolized” each time.
`CN(C)C(=O)Oc1cc(OC(=O)N(C)C)cc(C(O)CNC(C)(C)C)c1` (stereo not drawn) [BAMBUTEROL]: the “Bacterial Biotransformation” value in series [1] is “Compound NOT metabolized”; in series [2], “Compound NOT metabolized”; in [3] it was “Compound metabolized”; in series [4], “Compound metabolized”; in series [5], “Compound metabolized”; in series [6], “Compound NOT metabolized”. Also, the “Bacterial Biotransformation” value in [7], in [8] and in [9] was “Compound metabolized” throughout.
Consider `CCCN(CCC)CCc1cccc2c1CC(=O)N2` [ROPINIROLE], for which the “Bacterial Biotransformation” value in [1] is listed as “Compound NOT metabolized”; in series [2], “Compound NOT metabolized”; in series [3], “Compound metabolized”; in [4] it was “Compound NOT metabolized”; in series [5], “Compound metabolized”; in series [6] it was “Compound metabolized”. Besides, the “Bacterial Biotransformation” value in [7] was “Compound NOT metabolized”; in series [8] it was “Compound NOT metabolized”; in series [9], “Compound metabolized”.
On to `O=C1CC2(CCCC2)CC(=O)N1CCCCN1CCN(c2ncccn2)CC1` [BUSPIRONE], for which the “Bacterial Biotransformation” value in series [1] is “Compound NOT metabolized”; in series [2], “Compound NOT metabolized”; in series [3], “Compound metabolized”; in series [4] it was “Compound NOT metabolized”; in [5] it was “Compound metabolized”; in series [6], “Compound metabolized”. For the same compound, the results for the “Bacterial Biotransformation” value in series [7], in [8] and in series [9] were “Compound NOT metabolized”, “Compound metabolized” and “Compound metabolized”, respectively.
Regarding `CCN(CC)CCNC(=O)c1cc(S(C)(=O)=O)ccc1OC` [TIAPRIDE], the “Bacterial Biotransformation” value is on record as “Compound NOT metabolized” in [1]; “Compound NOT metabolized” in series [2]; “Compound metabolized” in series [3]; “Compound NOT metabolized” in series [4]; “Compound metabolized” in series [5]; “Compound NOT metabolized” in series [6]. Moreover, the “Bacterial Biotransformation” value is listed as “Compound NOT metabolized” in [7], “Compound NOT metabolized” in series [8] and “Compound metabolized” in [9].
In the case of `CC(=O)OCC(CCn1cnc2cnc(N)nc21)COC(C)=O` [FAMCICLOVIR], the “Bacterial Biotransformation” value in series [1], in series [2], in series [3], in series [4], in series [5] and in series [6] was “Compound metabolized” throughout. Besides, the “Bacterial Biotransformation” value in series [7], in [8] and in series [9] was “Compound metabolized” each time.
For the compound `CCN(C(C)=O)c1cccc(-c2ccnc3c(C#N)cnn23)c1` [ZALEPLON], the “Bacterial Biotransformation” value in series [1], in [2], in [3], in series [4], in [5] and in [6] was “Compound metabolized” in each case. The “Bacterial Biotransformation” value in series [7], in series [8] and in series [9] was “Compound metabolized” each time.
With `C=C[C@H]1CN2CC[C@H]1C[C@H]2[C@H](O)c1ccnc2ccc(OC)cc12.C=C[C@H]1CN2CC[C@H]1C[C@H]2[C@H](O)c1ccnc2ccc(OC)cc12.O.O.O=S(=O)(O)O` [QUININE SULFATE], the “Bacterial Biotransformation” value in series [1] was “Compound NOT metabolized”; in series [2], “Compound NOT metabolized”; in series [3], “Compound metabolized”; in series [4], “Compound NOT metabolized”; in series [5], “Compound metabolized”; in [6] it was “Compound metabolized”. The “Bacterial Biotransformation” value in series [7] is reported as “Compound NOT metabolized”; in series [8] it was “Compound NOT metabolized”; in [9], “Compound metabolized”.
With `CC(C)(C)NCC(O)COc1cccc2c1CC(O)C(O)C2` (stereo not drawn) [NADOLOL], the “Bacterial Biotransformation” value was “Compound NOT metabolized” in [1]; “Compound NOT metabolized” in series [2]; “Compound metabolized” in [3]; “Compound NOT metabolized” in [4]; “Compound metabolized” in series [5]; “Compound metabolized” in series [6]. The “Bacterial Biotransformation” value in series [7] is “Compound NOT metabolized”; in [8], “Compound metabolized”; in [9], “Compound metabolized”.
As for `CC(CCc1ccccc1)NCC(O)c1ccc(O)c(C(N)=O)c1` (stereo not drawn) [LABETALOL], the “Bacterial Biotransformation” value in [1] is “Compound NOT metabolized”; in series [2] it was “Compound NOT metabolized”; in series [3], “Compound metabolized”; in series [4], “Compound NOT metabolized”; in [5] it was “Compound metabolized”; in series [6], “Compound NOT metabolized”. The “Bacterial Biotransformation” value in [7] was “Compound NOT metabolized”; in series [8], “Compound metabolized”; in [9] it was “Compound NOT metabolized”.

Source of the values: ChEMBL document CHEMBL5724914, “Linking interpersonal differences in gut microbiota composition and drug biotransformation activity” (2024).
